Experimental data reported in patent publication US6358942B1, “Phenyloxazolidinones having a c-c bond 4-8 membered heterocyclic rings” (Pharmacia & Upjohn Company, priority 1995, dated 2002).
Like-named read-outs stand apart in the source and are kept apart here.

Test system: Staphylococcus aureus or Streptococcus species
Assay: Murine Assay: in vivo antimicrobial activity, survival of mice infected intraperitoneally with bacteria
Details: female mice, treatment 1 h and 5 h after infection, oral intubation or subcutaneous, survival over six days, probit analysis of mortality ratios
Method: Antimicrobial activity was tested in vivo using the Murine Assay procedure. Groups of female mice (six mice of 18-20 grams each) were injected intraperitoneally with bacteria which were thawed just prior to use and suspended in brain heart infusion with 4% brewers yeast (Staphylococcus aureus) or brain heart infusion (Streptococcus species). Antibiotic treatment at six dose levels per drug was administered one hour and five hours after infection by either oral intubation or subcutaneous routes. Survival was observed daily for six days. ED50 values based on mortality ratios were calculated using probit analysis. The subject compounds are compared against well-known antimicrobials vancomycin and U-100592 as controls. See “Upjohn Oxazolidinone Antibacterial Agent”, posters presented at the 35th Interscience Conference on Antimicrobial Agents and Chemotherapy.

Structure (SMILES)	ED50 (Table 1) [mg/kg]	ED50 (Table 1, read-out: ED50) [mg/kg]	also measured
CC(=O)NC[C@H]1CN(c2ccc(C3=CC[S+]([O-])C3)c(F)c2)C(=O)O1 (stereo partly drawn) [68(a), (5S)-N-[[3-[3-Fluoro-4-(2,5-dihydro-1-oxido-3-thienyl)-phenyl]-2-oxo-5-oxazolidinyl]methyl]acetamide]			ED50 (Table 2, read-out: ED50): 3.5 mg/kg
CC(=O)NC[C@H]1CN(c2ccc(C3=CCS(=O)(=O)C3)c(F)c2)C(=O)O1 [69(a), (S)-N-[[3-[3-Fluoro-4-(2,5-dihydro-1,1-dioxido-3-thienyl)-phenyl]-2-oxo-5-oxazolidinyl]methyl]acetamide]			ED50 (Table 2, read-out: ED50): 10 mg/kg
COC(=O)N1CC(C)(c2ccc(N3C[C@H](CNC(C)=O)OC3=O)cc2F)C1 [Example 3]	5.00		
COCC(=O)N1CC(C)(c2ccc(N3C[C@H](CNC(C)=O)OC3=O)cc2F)C1 [Example 4, (S)-N-[[3-[3-Fluoro-4-[1-(methoxyacetyl)-3-(3-methyl) -azetidinyl]-phenyl]-2-oxo-5-oxazolidinyl]methyl]-acetamide]	>20.00		
CC(=O)NC[C@H]1CN(c2ccc(C3(C)CN(C=O)C3)c(F)c2)C(=O)O1 [Example 5, (S)-N-[[3-[3-Fluoro-4-[1-(formyl)-3-(3-methyl)-azetidinyl]-phenyl]-2-oxo-5-oxazolidinyl]methyl]-acetamide]	3.60		
CC(=O)NC[C@H]1CN(c2ccc(C3(C)CN(C(=O)C(Cl)Cl)C3)c(F)c2)C(=O)O1 [Example 6, (S)-N-[[3-[3-Fluoro-4-[1-(dichloroacetyl)-3-(3-methyl) -azetidinyl]-phenyl]-2-oxo-5-oxazolidinyl]methyl]-acetamide]	>20.00		
CC(=O)NC[C@H]1CN(c2ccc(C3(C)CN(C(C)=O)C3)c(F)c2)C(=O)O1 [Example 10, (S)-N-[[3-[3-Fluoro-4-[1-acetyl-3-(3-methyl)-azetidinyl]-phenyl]-2-oxo-5-oxazolidinyl]methyl]-acetamide]	20.00		
CC(=O)NC[C@H]1CN(c2ccc(C3(C)CN(CCF)C3)c(F)c2)C(=O)O1 [Example 11, (S)-N-[[3-[3-Fluoro-4-[1-(2-fluoroethyl)-3-(3-methyl) -azetidinyl]-phenyl]-2-oxo-5-oxazolidinyl]methyl]-acetamide]	>20.00		
CC(=O)NC[C@H]1CN(c2ccc(C3(C)CN(CC#N)C3)c(F)c2)C(=O)O1 [Example 12, (S)-N-[[3-[3-Fluoro-4-[1-(cyanomethyl)-3-(3-methyl) -azetidinyl]-phenyl]-2-oxo-5-oxazolidinyl]methyl]-acetamide]	20.00		
CC(=O)NC[C@H]1CN(c2ccc(C3(C)CN(c4ncc([N+](=O)[O-])s4)C3)c(F)c2)C(=O)O1 [Example 13, (S)-N-[[3-[3-Fluoro-4-[1-(5-nitro-2-thiazolyl)-3-(3-methyl) -azetidinyl]-phenyl]-2-oxo-5-oxazolidinyl]methyl]-acetamide]	>10.00		
CC(=O)NC[C@H]1CN(c2ccc(C3(C)CN(C(=O)CO)C3)c(F)c2)C(=O)O1 [Example 16, (S)-N-[[3-[3-Fluoro-4-[1-(hydroxyacetyl)-3-(3-methyl)azetidinyl]-phenyl]-2-oxo-5-oxazolidinyl]methyl]-acetamide]	17.00		
CC(=O)NC[C@H]1CN(c2ccc(C3CCN(C(=O)CO)CC3)cc2)C(=O)O1 [Example 19, (S)-(−)-N-[[3-[4-[1-(Hydroxyacetyl)-4-piperidinyl]phenyl]-2-oxo-5-oxazolidinyl]methyl]acetamide]		6.8	
CC(=O)NC[C@H]1CN(c2ccc(C3CCN(C(=O)COCc4ccccc4)CC3)c(F)c2)C(=O)O1 [Example 21, (S)-(−)-N-[[3-[4-[1-[(Benzyloxy)acetyl]-4-piperidinyl]-3-fluorophenyl]-2-oxo-5-oxazolidinyl]methyl]acetamide]		> 20	
CC(=O)NC[C@H]1CN(c2ccc(C3CCN(C(=O)CO)CC3)c(F)c2)C(=O)O1 [Example 22, (S)-(−)-N-[[3-[4-[1-(Hydroxyacetyl)-4-piperidinyl]-3-fluorophenyl]-2-oxo-5-oxazolidinyl]methyl]acetamide]		2.3	
CC(=O)NC[C@H]1CN(c2ccc(C3CCN(C(=O)c4cc5ccccc5[nH]4)CC3)c(F)c2)C(=O)O1 [Example 23, (S)-(−)-N-[[3-[4-[1-(Indole-2-carbonyl)-4-piperidinyl]-3-fluorophenyl]-2-oxo-5-oxazolidinyl]methyl]acetamide]		> 20	
CC(=O)NC[C@H]1CN(c2ccc(C3CCN(C(=O)c4ccno4)CC3)c(F)c2)C(=O)O1 [Example 24, (S)-(−)-N-[[3-[4-[1-(Isoxazole-5-carbonyl)-4-piperidinyl]-3-fluorophenyl]-2-oxo-5-oxazolidinyl]methyl]acetamide]		> 20	
CC(=O)NC[C@H]1CN(c2ccc(C3CCN(CCF)CC3)c(F)c2)C(=O)O1 [Example 28, (S)-(−)-N-[[3-[4-[1-(2-Fluoroethyl)-4-piperidinyl]-3-fluorophenyl]-2-oxo-5-oxazolidinyl]methyl]acetamide]		15.3	

Structure (SMILES)	ED50 (Table 1) [mg/kg]	ED50 (Table 1, read-out: ED50) [mg/kg]	also measured
CC(=O)NC[C@H]1CN(c2ccc(C3CCN(C=O)CC3)c(F)c2)C(=O)O1 [Example 29, (S)-(−)-N-[[3-[4-[1-(Formyl)-4-piperidinyl]-3-fluorophenyl]-2-oxo-5-oxazolidinyl]methyl]acetamide]		5	
O=C(NC[C@H]1CN(c2ccc(C3CCN(C(=O)CO)CC3)c(F)c2)C(=O)O1)C(Cl)Cl [Example 33, (S)-(−)-2,2-Dichloro-N-[[2-oxo-3-[3-fluoro-4-[1-(hydroxyacetyl)-4-piperidinyl]phenyl]-5-oxazolidinyl]methyl]acetamide]		10.6	
CC(=O)NC[C@H]1CN(c2ccc(C3CCN(C(=O)COC(C)=O)CC3)c(F)c2)C(=O)O1 [Example 34, (S)-(−)-N-[[2-Oxo-3-[3-fluoro-4-[1-[(acetoxy)acetyl]-4-piperidinyl]phenyl]-5-oxazolidinyl]methyl]acetamide]		6.3	
CC(=O)NC[C@H]1CN(c2cc(F)c(C3CCN(C(=O)CO)CC3)c(F)c2)C(=O)O1 [Example 37, (S)-(−)-N-[[3-[4-[1-(Hydroxyacetyl)-4-piperidinyl]-3,5-difluorophenyl]-2-oxo-5-oxazolidinyl]methyl]acetamide]		8.7	
CC(=O)NC[C@H]1CN(c2ccc(C3=CCN(C(=O)COC(C)=O)CC3)c(F)c2)C(=O)O1 [Example 39, (S)-(−)-N-[[2-Oxo-3-[3-fluoro-4-[-1-[(acetoxy)acetyl]-3,6-dihydro-2H-pyridin-4-yl]phenyl]-5-oxazolidinyl]methyl]acetamide]		3	
CC(=O)NC[C@H]1CN(c2ccc(C3=CCN(C(=O)CO)CC3)c(F)c2)C(=O)O1 [Example 40, (S)-(−)-N-[[3-[4-[1-(Hydroxyacetyl)-3,6-dihydro-2H-pyridin-4-yl]-3-fluoropheny]-2-oxo-5-oxazolidinyl]methyl]acetamide]	1.00		
CC(=O)NC[C@H]1CN(c2ccc(C3CCN(C(=O)CO)C3)c(F)c2)C(=O)O1 (stereo partly drawn) [Example 44, (5S)-N-[[3-[3-Fluoro-4-[1-(hydroxyacetyl)-3-pyrrolidinyl]phenyl]-2-oxo-5-oxazolidinyl]methyl]acetamide]		5	
COC(=O)N1CCC(c2ccc(N3C[C@H](CNC(C)=O)OC3=O)cc2F)C1 (stereo partly drawn) [Example 46, (5S)-3-[4-[5-[(Acetylamino)methyl]-2-oxo-3-oxazolidinyl]-2-fluoropheny]-1-pyrrolidinecarboxylic acid methyl ester]			ED50 (Table 2): 7.90 mg/kg
CC(=O)NC[C@H]1CN(c2ccc(C3=CCOCC3)c(F)c2)C(=O)O1 [Example 47, (S)-(−)-N-[[3-[4-(3,6-Dihydro-2H-pyran-4-yl)-3-fluoropheny]-2-oxo-5-oxazolidinyl]methyl]acetamide]	7.10		
CC(=O)NC[C@H]1CN(c2ccc(C3CCOCC3)c(F)c2)C(=O)O1 [Example 48, (S)-(−)-N-[[3-[4-[Tetrahydro-2H-pyran-4-yl]-3-fluoropheny]-2-oxo-5-oxazolidinyl]methyl]acetamide]			ED50 (Table 2): 17.50 mg/kg
CC(=O)NC[C@H]1CN(c2ccc(C3=CCSCC3)c(F)c2)C(=O)O1 [Example 49, (S)-(−)-N-[[3-[4-(3,6-Dihydro-2H-thiopyran-4-yl)-3-fluoropheny]-2-oxo-5-oxazolidinyl]methyl]acetamide]			ED50 (Table 2): 2.40 mg/kg
CC(=O)NC[C@H]1CN(c2ccc(C3=CCS(=O)(=O)CC3)c(F)c2)C(=O)O1 [Example 50, (S)-(−)-N-[[3-[4-(3,6-Dihydro-2H-thiopyran-4-yl)-3-fluoropheny]-2-oxo-5-oxazolidinyl]methyl]acetamide S,S-dioxide]			ED50 (Table 2): 2.20 mg/kg
CC(=O)NC[C@H]1CN(c2ccc(C3CCS(=O)(=O)CC3)c(F)c2)C(=O)O1 [Example 51, (S)-(−)-N-[[3-[3-Fluoro-4-(tetrahydro-2H-thiopyran-4-yl)phenyl]-2-oxo-5-oxazolidinyl]methyl]acetamide S,S-dioxide]			ED50 (Table 2): 2.80 mg/kg
CC(=O)NC[C@H]1CN(c2ccc(C3=CCOCC3)cc2)C(=O)O1 [Example 52, (S)-(−)-N-[[3-[4-(3,6-Dihydro-2H-pyran-4-yl)phenyl]-2-oxo-5-oxazolidinyl]methyl]acetamide]			ED50 (Table 2, read-out: ED50): 4 mg/kg
CC(=O)NC[C@H]1CN(c2ccc(C3CCOCC3)cc2)C(=O)O1 [Example 53, (S)-(−)-N-[[3-[4-[Tetrahydro-2H-pyran-4-yl]phenyl]-2-oxo-5-oxazolidinyl]methyl]acetamide]			ED50 (Table 2, read-out: ED50): > 20 mg/kg
CC(=O)NC[C@H]1CN(c2ccc(C3=CCSCC3)cc2)C(=O)O1 [Example 54, (S)-(−)-N-[[3-[4-(3,6-Dihydro-2H-thiopyran-4-yl)phenyl]-2-oxo-5-oxazolidinyl]methyl]acetamide]			ED50 (Table 2, read-out: ED50): 6.6 mg/kg
